Type in all cases: cell-based
Assay [1] concerns HEL92.1.7. As to the kind of experiment: Cell growth inhibition assay, blood cancer cell line HEL92.1.7. Conditions: Homo sapiens, HEL 92.1.7, HEL92.1.7 blood cancer cell line. The method in brief:
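Cells were seeded at 3,000/well (HCT116, DU-145) or 5,000/well (SW626 and the others) and exposed to serial compound dilutions for 72 to 96 h at 37 °C under 5% CO2. Viability was read as CellTiter-Glo luminescence against 0.1% DMSO and cell-free wells.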

Assay [2] deals with LNCaP. The assay can be described thus: Cell growth inhibition assay, prostate cancer cell line LNCaP (medium with 10 ng/mL IL-6). Conditions: Homo sapiens, medium supplemented with 10 ng/mL of IL-6, 10,000 cells/well.
Assay [3] has as its target T1, STAT3 (Homo sapiens, UniProt P40763).
T1 construct: plasmid pSTAT3-TA-luc), which contains a stably operating STAT3 promoter; endogenous in cells
The assay can be described thus: STAT3 reporter gene assay (luciferase), LNCaP stable cell line (pSTAT3-TA-luc), IL-6 stimulation. The method in brief:
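LNCaP cells stably carrying pSTAT3-TA-luc, in RPMI1640 with 3% DCC-FBS, were treated with compound and then stimulated with 10 ng/mL IL-6 for 24–48 h at 37 °C. Luciferase activity was measured in lysates. A parallel plate measured viability by CellTiter-Glo, with stimulated 0.1% DMSO wells as the positive control.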
In general terms: Reporter assays use an easily measured gene product as a stand-in for the process of interest.

Assay [4] deals with MDA-MB-231. The assay can be described thus: Cell growth inhibition assay, breast cancer cell line MDA-MB-231. Conditions: Homo sapiens; MDA-MB-231 breast cancer cell line, 5,000 cells/well.
Assay [5] concerns DU-145. As to the kind of experiment: Cell growth inhibition assay, prostate cancer cell line DU-145. Conditions: Homo sapiens, DU-145 prostate cancer cell line. The method in brief: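 Luminescent CellTiter-Glo readout of viable cells after 72–96 h compound exposure (37° C., 5% CO2). Seeding: 3,000 cells/well for DU-145 and HCT116, 5,000 cells/well for SW626. Controls were medium without cells and 0.1% DMSO vehicle.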

In assay [6] the test system is U266. As to the kind of experiment: Cell growth inhibition assay, blood cancer cell line U266. Conditions: Homo sapiens, U-266 blood cancer cell line. As for the experimental part: The inhibitory effects of the compounds of the present invention against the growth of cancer cells were evaluated as shown below. The cancer cell lines including stomach cancer cell line (AGS), breast cancer cell lines (MDA-MB-231, MDA-MB-468, and BT-549), prostate cancer cell lines (LNCaP and DU-145), colon cancer cell line (HCT116), ovarian cancer cell line (SW626), liver cancer cell line (Hep3B), kidney cancer cell line (ACHN), lung cancer cell line (NCI-H23) and blood cancer cell lines (HEL92.1.7 and U266) were cultured under the protocol provided by each supplier. A medium supplemented with 10 ng/mL of IL-6 was used for LNCaP, a prostate cancer cell line, when treated with a drug. Each type of cells to be used in experiments were sub-cultured in a 96-well plate by counting the exact number of cells using Tali™ Image-based Cytometer (Life Technologies). In a 96-well plate, AGS, HCT116, and DU-145 were employed with 3,000 cells/well; NCI-H23, SW626, Hep3B, ACHN, BT-549, MDA-MB-231, HEL92.1.7, and U266 were employed with 5,000 cells/well; and LNCaP and MDA-MB-468 were employed with 10,000 cells/well. The cells were treated with the compounds listed in Examples which were diluted in various concentrations. Upon completion of the compounds treatment, AGS, HCT116, SW626, DU145, NCI-H23, Hep3B, ACHN, BT-549, LNCaP, HEL92.1.7, and U266 cells were cultured at 37° C. under 5% CO2 for from 72 to 96 hours, and MDA-MB-231 and MDA-MB-468 cells were cultured at 37° C. in air for from 72 to 96 hours. Subsequently, the cells were observed under microscope and drug precipitation and particular findings were investigated and recorded. And then, the 96-well plate was placed at room temperature for 30 minutes, added with 20 μL/well of CellTiter-Glo solution (Cat No. G7573, Promega) and shaken for 10 minutes, followed by being subjected to the measurement using PHERAstar™ microplate reader (BMG LABTECH) according to the supplier's general luminometer protocol. Wells where only culture liquid added without cell plating were used as a negative control, whereas wells where culture liquid containing 0.1% DMSO instead of the compounds listed in Examples were used as a positive control.

T1 sequence (P40763 whole entry): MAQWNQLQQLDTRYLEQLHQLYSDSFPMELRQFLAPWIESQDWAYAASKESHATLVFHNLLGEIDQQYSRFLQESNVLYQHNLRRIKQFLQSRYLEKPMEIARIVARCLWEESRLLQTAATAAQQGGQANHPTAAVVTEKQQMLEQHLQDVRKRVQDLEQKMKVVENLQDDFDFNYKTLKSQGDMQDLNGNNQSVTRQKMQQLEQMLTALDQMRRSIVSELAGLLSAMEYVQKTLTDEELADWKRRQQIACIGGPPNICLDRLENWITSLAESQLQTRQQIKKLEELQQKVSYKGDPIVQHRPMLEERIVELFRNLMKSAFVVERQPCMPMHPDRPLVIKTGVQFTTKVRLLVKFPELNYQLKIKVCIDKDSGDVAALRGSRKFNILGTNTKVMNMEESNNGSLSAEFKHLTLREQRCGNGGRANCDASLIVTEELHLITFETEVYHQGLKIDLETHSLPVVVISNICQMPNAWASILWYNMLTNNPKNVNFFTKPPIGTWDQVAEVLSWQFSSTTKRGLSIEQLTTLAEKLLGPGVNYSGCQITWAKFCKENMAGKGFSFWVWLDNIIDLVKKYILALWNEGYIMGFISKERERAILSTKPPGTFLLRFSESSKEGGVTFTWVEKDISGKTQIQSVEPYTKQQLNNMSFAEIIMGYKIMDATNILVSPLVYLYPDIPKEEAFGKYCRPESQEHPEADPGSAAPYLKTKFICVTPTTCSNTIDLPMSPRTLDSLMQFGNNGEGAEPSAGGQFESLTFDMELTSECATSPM

Broadly, the IC50 is the concentration that inhibits the measured activity by half. In the case of `COc1cc(OC(F)(F)F)cc(C(C)(C)c2cccc(NC(=O)c3cc4ccc(NS(C)(=O)=O)cc4[nH]3)c2)c1` [Example 9, N-(3-(2-(3-methoxy-5-(trifluoromethoxy)phenyl)propan-2-yl)phenyl)-6-(methylsulfonamido)-1H-indole-2-carboxamide], the IC50 is 0.95 µM in assay [1]; 0.78 µM in assay [2]; 0.056 µM in assay [3]; 0.012 µM in assay [4]; 0.035 µM in assay [5]; 0.74 µM in assay [6].

Consider `CCOc1cc(OC(F)(F)F)cc(C(C)(C)c2cc(Br)cc(NC(=O)c3cc4ccc(NS(C)(=O)=O)cc4[nH]3)c2)c1` [Example 22, N-(3-bromo-5-(2-(3-ethoxy-5-(trifluoromethoxy)phenyl)propan-2-yl)phenyl)-6-(methylsulfonamido)-1H-indole-2-carboxamide], for which the IC50 amounted to 0.13 µM in assay [1]; 0.29 µM in assay [2]; 0.11 µM in assay [3]; 0.007 µM in assay [4]; 0.048 µM in assay [5]; 0.13 µM in assay [6].

In the case of `CC(C)Oc1cc(CN2CCOCC2)cc(C(C)(C)c2cc(Br)cc(NC(=O)c3cc4cc(NS(C)(=O)=O)ccc4s3)c2)c1` [Example 122, N-(3-bromo-5-(2-(3-isopropoxy-5-(morpholinomethyl)phenyl)propan-2-yl)phenyl)-5-(methylsulfonamido)benzo[b]thiophene-2-carboxamide], the IC50 in assay [1] was found to be 0.19 µM; in assay [2] it was 0.24 µM; in assay [3], 0.12 µM; in assay [5], 0.049 µM; in assay [6], 0.18 µM.

As to `CC(C)Oc1cc(CN2CCN(C(=O)OC(C)(C)C)CC2)cc(C(C)(C)c2cc(Br)cc(NC(=O)c3cc4cc(NS(C)(=O)=O)ccc4s3)c2)c1` [Example 123, tert-butyl 4-(3-(2-(3-bromo-5-(5-(methylsulfonamido)benzo[b]thiophene-2-carboxamido)phenyl)propan-2-yl)-5-isopropoxybenzyl)piperazine-1-carboxylate], the IC50 came out at 0.11 µM in assay [1]; 0.15 µM in assay [2]; 0.046 µM in assay [3]; 0.042 µM in assay [5]; 0.13 µM in assay [6].

For the compound `CC(C)Oc1cc(CN2CCN(C(=O)C(C)(C)C)CC2)cc(C(C)(C)c2cc(Cl)cc(NC(=O)c3cc4cc(NS(C)(=O)=O)ccc4s3)c2)c1` [Example 127, N-(3-chloro-5-(2-(3-isopropoxy-5-((4-pivaloylpiperazin-1-yl)methyl)phenyl)propan-2-yl)phenyl)-5-(methylsulfonamido)benzo[b]thiophene-2-carboxamide], the half-inhibitory concentration (IC50) in assay [1] was determined as 0.34 µM; in assay [2] it was 0.14 µM; in assay [3] it was 0.15 µM; in assay [5], 0.066 µM; in assay [6] it was 0.43 µM.

For the compound `CC(C)Oc1cc(CN2CCN(c3noc(C(C)C)n3)CC2)cc(C(C)(C)c2cc(Cl)cc(NC(=O)c3cc4cc(NS(C)(=O)=O)ccc4s3)c2)c1` [Example 129, N-(3-chloro-5-(2-(3-isopropoxy-5-((4-(5-isopropyl-1,2,4-oxadiazol-3-yl)piperazin-1-yl)methyl)phenyl)propan-2-yl)phenyl)-5-(methylsulfonamido)benzo[b]thiophene-2-carboxamide], the IC50 amounted to 0.24 µM in assay [1]; 0.12 µM in assay [2]; 0.07 µM in assay [3]; 0.06 µM in assay [5]; 0.28 µM in assay [6].

On to `CC(C)Oc1cc(CN2CCN(C3COC3)CC2)cc(C(C)(C)c2cc(Cl)cc(NC(=O)c3cc4cc(NS(C)(=O)=O)ccc4s3)c2)c1` [Example 130, N-(3-chloro-5-(2-(3-isopropoxy-5-((4-(oxetan-3-yl)piperazin-1-yl)methyl)phenyl)propan-2-yl)phenyl)-5-(methylsulfonamido)benzo[b]thiophene-2-carboxamide], for which the IC50 in assay [1] is greater than 1.1 µM; in assay [2], 0.76 µM; in assay [3] it was 0.308 µM; in assay [5] it was 0.17 µM; in assay [6], 0.74 µM.

The values are drawn from patent publication US10562912B2 (C&C Research Laboratories, priority 2013, dated 2020).
